Laboratory results from PMC8199578, “Anti-Inflammatory, Antiallergic, and COVID-19 Main Protease (M^pro) Inhibitory Activities of Butenolides from a Marine-Derived Fungus Aspergillus terreus” (Molecules, 2021).
Where two headings read alike, the source gives them in different places.

Key:
human neutrophils [1] = experiment: Elastase release in fMLF/CB-induced human neutrophils; assay type: cell-based; settings: Neutrophil, read-out: Elastase Release in Human Neutrophils IC50
Method: (§1) The human neutrophils were obtained from venous blood of healthy adult volunteers (20–30 years old) following the reported procedure. Elastase release by the activated neutrophils was determined using elastase substrate (N-methoxysuccinyl-Ala-Ala-Pro-Val-p-nitroanilide) according to the previous methodology. The tested samples’ concentration was 1 to 10 μM and the total incubation time in fMLF/CB-induced cells was 15 min. Genistein was used as the positive control. Cytotoxicity test was performed based on the release of LDH stored in the cytoplasm out of the cells. Briefly, preheated (37 °C, 5 min, 1 mM CaCl2) human neutrophils (6 × 10^5 cells·mL^−1) were incubated with test compounds for 15 min. Total LDH release control was represented as completely lysed cells by 0.1% of Triton X-100 solution incubated with cells for 30 min. The cells were centrifuged at 4 °C for 200× g for 8 min, and LDH reagent was added to supernatant and reacted at room temperature for 30 min in the dark. The absorbance was then measured at 492 nm, and the LDH release was calculated and compared to the total LDH release set as 100%.

[2] = MTT cell viability assay in mast cells; assay type: cell-based; settings: rat
Method: (§2) The mucosal mast-cell-derived rat basophilic leukemia cells (RBL-2H3) were purchased from Bioresource Collection and Research Center (Hsin-Chu, Taiwan). The cells were cultured in DMEM containing 10% FBS, 100 U/mL penicillin, and 100 μg/mL streptomycin in 10 cm cell culture dishes at 37 °C in a humidified chamber with 5% CO2 in air. The level of degranulation in RBL-2H3 cells was evaluated using β-hexosaminidase release assay induced by A23187 or antigen as reported before with some modifications. Briefly, the cells were seeded in a 96-well plate (2 × 10^4 cells/well, for the A23187-induced assay) or a 48-well plate (3 × 10^4 cells/well, for the antigen-induced assay) overnight. The cells for the antigen-induced assay were sensitized with anti-DNP IgE (0.5 μg/mL; Sigma) during seeding overnight. RBL-2H3 cells were then treated with the samples (0.5, 5, and 50 μM) for 30 min in Tyrode’s buffer with a maximal DMSO dose of 0.5%. For the A23187-induced assay, the cells were activated by addition of A23187 (final concentration 0.5 μM), while cells for the antigen-induced assay were activated by the addition of DNP-BSA (final concentration 100 ng/mL) for 30 min. Azelastine (10 μM) served as the positive control. The amount of β-hexosaminidase was detected using the method utilizing p-NAG as the substrate according to the procedure described before.
The viability of the RBL-2H3 cells in the presence of the samples (10 and 100 μM) was determined using the methylthiazole tetrazolium (MTT) assay according to a previous method.

RBL-2H3 cells [3] = experiment: A23187-induced degranulation (β-hexosaminidase release) assay; assay type: cell-based; settings: Rattus norvegicus; for IC50: RBL-2H3, read-out: Inhibition of A23187-Induced Degranulation IC50
Method: as §2

RBL-2H3 cells [4] = experiment: Antigen (anti-DNP IgE plus DNP-BSA)-induced degranulation (β-hexosaminidase release) assay; assay type: cell-based; settings: Rattus norvegicus; for IC50: RBL-2H3, read-out: Inhibition of Antigen-Induced Degranulation IC50
Method: as §2

human neutrophils [5] = experiment: Lactate dehydrogenase (LDH) viability assay in human neutrophils; assay type: cell-based; settings: cell viability assay based on lactate dehydrogenase release
Method: as §1

[6] = as above; assay type: cell-based; settings: human, human neutrophils; 10 μM; based on lactate dehydrogenase release; mean ± S.E.M. (n = 3); read-out: Cell viability, Human Neutrophils
Method: as §1

[7] = molecular target: T1, human neutrophil elastase (Homo sapiens, UniProt P08246); experiment: Elastase enzymatic activity (cell-free); assay type: biochemical; settings: mean ± S.E.M. (n = 3)
T1 construct: followed by fMLF (0.1 μM) for 20 min to release the elastase from the cells; endogenous in cells; host or cells: human neutrophils; degranulation supernatant after CB/fMLF stimulation
T1 sequence (P08246 30-247 limits assumed): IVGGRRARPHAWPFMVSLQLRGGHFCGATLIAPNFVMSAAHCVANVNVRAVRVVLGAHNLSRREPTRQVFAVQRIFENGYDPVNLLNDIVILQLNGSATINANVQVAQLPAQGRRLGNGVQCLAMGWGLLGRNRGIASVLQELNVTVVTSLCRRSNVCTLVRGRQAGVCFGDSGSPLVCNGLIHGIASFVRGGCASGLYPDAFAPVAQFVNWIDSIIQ
Method: The compounds were further tested for direct inhibition of elastase enzymatic activity. The neutrophil suspension (6 × 10^5 cells mL^−1) was preheated for 5 min in the presence of CaCl2 (1 mM) at 37 °C. Priming agent CB (1.5 μg mL^−1) was added for 2 min, followed by fMLF (0.1 μM) for 20 min to release the elastase from the cells. After centrifugation at 1000 g for 5 min at 4 °C, the supernatant containing elastase was preheated at 37 °C for 5 min, and the test compounds were added. Then, 0.1 mM of substrate methoxysuccinyl-Ala-Ala-Pro-Val-p-nitroanilide was added for 10 min. The effect of the compounds on elastase enzymatic activity was quantified by measuring the absorbance at 405 nm.

[8] = parameters: method as in PMID 29763312; settings: via reducing the levels of histamine and mouse mast cell proteinases; cited from earlier work
[9] = 100 μM, MTT viability assay, compared with untreated control (DMSO), n = 3, read-out: Cell Viability, RBL-2H3
[10] = RBL-2H3, read-out: Inhibition of A23187-induced degranulation
[11] = RBL-2H3, read-out: Inhibition of antigen-induced degranulation

Row | Compound | IC50 (human neutrophils [1]; Homo sapiens) | IC50 (RBL-2H3 cells [3]) | IC50 (RBL-2H3 cells [4]) | Toxicity to human neutrophils (in words) (human neutrophils [5]) | viability at 15 min, 10 µM [6] | viability at 100 µM [2, 9] | IC50 [7] | other results
1 | CC(C)=CCc1cc(C=O)ccc1O [4-hydroxy-3-(3-methylbut-2-enyl)benzaldehyde] | > 10 µM | > 100 µM | > 100 µM |  |  |  |  | viability at 100 µM [2]: > 90%
2 | COC(=O)[C@]1(Cc2ccc(O)c(CC3OC3(C)C)c2)OC(=O)C(O)=C1c1ccc(O)cc1 (stereo partly drawn) [Butyrolactone III (2), butyrolactone III] | > 10 µM | > 100 µM | > 100 µM | non-toxic | 98.2 ± 1.77% | > 90% | > 30 µM | 
3 | C=C1C[C@]2(O)[C@@]3(C)CCC(=O)C(C)(C)C3=C(O)C(=O)[C@@]2(C)[C@@H]2C(=O)O[C@@](C)(C(=O)OC)C(=O)[C@@]12C [Terretonin (3), terretonin] | > 10 µM | > 100 µM | > 100 µM |  |  | > 90% |  | 
4 | COC(=O)[C@]1(Cc2ccc(O)c(CC=C(C)C)c2)OC(=O)C(O)=C1c1ccc(O)cc1 [Butyrolactone I (1), butyrolactone I] | 2.3 ± 0.27 µM | 39.7 µM | 41.6 µM | non-toxic | 94.1 ± 2.31% | > 90% | 16.7 ± 2.64 µM | inhibition at 10 µM (RBL-2H3 cells [3]; [10]): 26%; inhibition at 100 µM (RBL-2H3 cells [3]; [10]): 98.7%; inhibition at 10 µM (RBL-2H3 cells [4]; [11]): 30%; inhibition at 100 µM (RBL-2H3 cells [4]; [11]): 87%; Effect on ovalbumin-induced allergy symptoms [8]: alleviating ovalbumin-induced allergy symptoms
5 | CN1CCCC(n2nc(Cc3ccc(Cl)cc3)c3ccccc3c2=O)CC1 (stereo not drawn) [Azelastine, reference compound] |  |  |  |  |  |  |  | inhibition at 10 µM (RBL-2H3 cells [3]; RBL-2H3, 10 μM, mean ± S.E.M. (n = 3), read-out: Inhibition of A23187-induced degranulation): 34.5%; inhibition at 10 µM (RBL-2H3 cells [4]; RBL-2H3, 10 μM, mean ± S.E.M. (n = 3), read-out: Inhibition of antigen-induced degranulation): 35.5%
6 | O=c1c(-c2ccc(O)cc2)coc2cc(O)cc(O)c12 [Genistein, reference compound] |  |  |  |  |  |  |  | IC50 (human neutrophils [1]; fMLF/cytochalasin B (CB)-induced human neutrophils, mean ± S.E.M. (n = 3)): 32.7 µM
